Series [1] can be described thus: Phase I trial of oral PX-866: clinical pharmacokinetics. In kind it is in vivo, human.
In the next series the target is PIK3CA (p110α) (Homo sapiens, UniProt P42336). The experiment in a line: PI-3K isoform inhibition, p110α (PIK3CA); the text calls it cell based. Particulars: cell proliferation assays versus p110α and p110β isoforms. From the text: PX-866 is an pan-isoform inhibitor of Class I P1-3K that covalently binds to ATP binding site of the p110 catalytic subunit.
Series [2] in a line: Phase I trial of oral PX-866: safety, DLT and MTD. In kind it is in vivo, human. As to conditions: for Maximal Tolerated Dose (MTD): oral. The method, then:
(§1) This was an Open-label dose escalation study with expansion cohort at Maximal Tolerated Dose (MTD), 3+3 design and to test efficacy of 2 dosing schedules (intermittent and continuous). PX-866 was administered as an oral dose.
The primary and secondary objectives were tested using two different dosing regimens: 10 days of drug administration and daily administration for 28 days.
Intermittent schedule: 10 dose levels tested (0.5-16 mg). The starting dose level was 0.5 mg. Doses increased as follows: 100% escalation up to 2 mg, 50% escalation up to 4.5 mg, and approximately 30% escalation until the MTD is identified. The highest dose level at which no more than 1/6 patients experiences DLT was declared the MTD. The resulting dose levels were: 0.5, 1, 2, 3, 4.5, 6, 8, 10, 12 and 16 mg.
FIG. 1 illustrates the dosing schedule for intermittent dosing where PX-866 was given to patients on days 1-5 and 8-12 of a 28-day cycle.
Continuous dosing schedule: The starting dose was two dose levels below the MTD of intermittent dosing (8 mg) and subsequent dose levels was one or two dose levels (10 mg or 8 mg) below the MTD of intermittent dosing dependent on recommendation of the dose cohort review committee. FIG. 1 illustrates the dosing schedule for continuous dosing.

Another series deals with advanced solid tumors. The experiment in a line: Phase I trial of oral PX-866: tumor response by RECIST. Particulars: 1 to 7 prior treatments, median 4 prior systemic regimens. In kind it is in vivo, human. The method, then:
as §1
Patient response was evaluated according to Response Evaluation Criteria in Solid Tumors (RECIST). Briefly, all measurable lesions up to a maximum of five lesions, representative of all involved organs were identified as target lesions and recorded and measured at baseline. Target lesions were selected on the basis of their size (lesions with the longest diameter) and their suitability for accurate repeated measurements (either by imaging techniques or clinically). A sum of the longest diameter (LD) for all target lesions was calculated and reported as the baseline sum LD. The baseline sum LD was used as reference by which to characterize the objective tumor. All other lesions (or sites of disease) were identified as non-target lesions and were also be recorded at baseline. Measurements of these lesions were not required, but the presence or absence of each was noted throughout follow-up.
A Complete Response (CR) indicated a disappearance of all target lesions.

A further series has as its system p-AKT/T-AKT. The series can be described thus: Clinical pharmacodynamics: p-AKT/T-AKT after a single oral dose. As to conditions: 3 of 4 patients, 8 mg dose level, 4 hours after a single oral dose. In kind it is in vivo, human.
Another series has as its system PI-3K pathway. The series can be described thus: Clinical pharmacodynamics: PBMCs stimulated ex vivo, FACS based assay (p-mTOR, p-S6). In kind it is in vivo, human. Particulars: PBMCs of treated patients stimulated ex vivo. The method, then:
The pharmacodynamic effects of PX-866 in patients treated in the phase I single agent study were assessed using isolated peripheral blood mononuclear cells (PBMCs) stimulated ex vivo via FACS based assay. […] The study provided Evidence for pathway inhibition lasting up to 3 days post-treatment.

Sequence of PIK3CA (p110α) (P42336 whole entry, canonical isoform): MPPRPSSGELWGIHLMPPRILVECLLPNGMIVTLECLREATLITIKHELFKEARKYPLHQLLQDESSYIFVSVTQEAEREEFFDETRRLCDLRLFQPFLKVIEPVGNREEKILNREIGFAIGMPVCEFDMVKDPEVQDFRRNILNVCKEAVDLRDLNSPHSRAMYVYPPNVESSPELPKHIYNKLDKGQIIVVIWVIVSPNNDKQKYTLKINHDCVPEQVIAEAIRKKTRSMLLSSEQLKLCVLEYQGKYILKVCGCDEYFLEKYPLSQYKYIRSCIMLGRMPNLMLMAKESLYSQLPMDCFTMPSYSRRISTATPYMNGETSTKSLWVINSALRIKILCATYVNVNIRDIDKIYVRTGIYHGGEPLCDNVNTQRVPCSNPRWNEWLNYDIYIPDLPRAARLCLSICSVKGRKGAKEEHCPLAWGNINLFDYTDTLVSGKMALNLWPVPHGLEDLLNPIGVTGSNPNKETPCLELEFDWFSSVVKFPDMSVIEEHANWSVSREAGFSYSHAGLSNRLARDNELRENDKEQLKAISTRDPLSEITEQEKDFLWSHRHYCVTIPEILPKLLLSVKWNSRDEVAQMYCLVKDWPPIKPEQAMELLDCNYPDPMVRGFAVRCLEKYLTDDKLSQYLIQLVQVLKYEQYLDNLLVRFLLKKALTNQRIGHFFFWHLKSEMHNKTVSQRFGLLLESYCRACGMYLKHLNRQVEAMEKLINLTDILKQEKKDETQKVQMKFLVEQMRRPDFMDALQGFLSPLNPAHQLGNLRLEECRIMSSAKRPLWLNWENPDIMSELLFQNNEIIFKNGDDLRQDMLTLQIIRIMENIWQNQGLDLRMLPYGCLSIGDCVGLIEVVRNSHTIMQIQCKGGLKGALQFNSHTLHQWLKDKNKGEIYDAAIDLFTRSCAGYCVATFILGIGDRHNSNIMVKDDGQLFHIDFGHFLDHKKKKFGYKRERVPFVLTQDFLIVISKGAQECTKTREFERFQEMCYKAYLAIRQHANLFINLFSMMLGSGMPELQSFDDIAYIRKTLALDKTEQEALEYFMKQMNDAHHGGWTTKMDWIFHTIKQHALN
Sequence of PIK3CA (p110α) (P27986 whole entry partner, canonical isoform): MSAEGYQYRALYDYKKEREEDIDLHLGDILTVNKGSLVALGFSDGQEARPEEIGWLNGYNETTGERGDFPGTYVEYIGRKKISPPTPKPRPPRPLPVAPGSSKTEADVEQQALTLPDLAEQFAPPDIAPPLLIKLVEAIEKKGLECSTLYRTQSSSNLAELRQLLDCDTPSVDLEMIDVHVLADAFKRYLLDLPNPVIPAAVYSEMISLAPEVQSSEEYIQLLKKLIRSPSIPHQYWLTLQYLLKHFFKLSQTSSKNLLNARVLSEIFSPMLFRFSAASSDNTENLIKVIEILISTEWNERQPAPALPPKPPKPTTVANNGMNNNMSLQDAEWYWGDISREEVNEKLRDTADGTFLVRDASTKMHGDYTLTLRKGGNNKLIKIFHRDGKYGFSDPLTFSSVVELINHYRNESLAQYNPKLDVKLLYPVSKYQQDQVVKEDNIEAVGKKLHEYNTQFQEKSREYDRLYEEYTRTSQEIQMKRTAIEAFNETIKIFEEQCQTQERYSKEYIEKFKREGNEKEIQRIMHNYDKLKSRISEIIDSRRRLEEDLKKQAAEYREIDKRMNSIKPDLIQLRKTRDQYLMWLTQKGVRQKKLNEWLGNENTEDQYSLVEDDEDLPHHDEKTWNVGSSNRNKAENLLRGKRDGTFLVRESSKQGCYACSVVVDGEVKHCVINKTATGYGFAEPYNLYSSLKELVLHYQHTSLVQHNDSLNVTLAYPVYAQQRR

`C=CCN(C=C1C(=O)OC(COC)C2(C)C1=C(O)C(=O)C1=C2C(OC(C)=O)CC2(C)C(O)CCC12)CC=C` (stereo not shown) [17-OH PX-866]: in series [1] (due to an increase in mean residence time in humans), the “AUC in humans compared with mice” value is recorded as “exceeded AUC in mice”. The “increase in potency versus the parent PX-866” value on PIK3CA (p110α) is on record as 2-5 fold.
For the molecule `C=CCN(/C=C1/C(=O)O[C@H](COC)[C@@]2(C)C1=C(O)C(=O)C1=C2[C@H](OC(C)=O)C[C@]2(C)C(=O)CC[C@@H]12)CC=C` [PX-866, Acetic acid 4-diallylaminomethylene-6-hydroxy-1-α-methoxymethyl-10β,13β-dimethyl-3,7,17-trioxo-1,3,4,7,10,11β,12,13,14α,15,16,17-dodecahydro-2-oxa-cyclopenta[α]phenanthren-11-yl ester], the “Maximal Tolerated Dose (MTD)” value in series [2] (continuous daily dosing) is reported as 8 mg per day; in series [2] (intermittent dosing, days 1-5 and 8-12 of a 28-day cycle), 12 mg per day. Besides, the ALT/AST result in series [2] (continuous dosing) is given as “ALT/AST elevation was observed”. Besides, the “Most common adverse events” value in series [2] (continuous dosing) was “diarrhea, nausea, vomiting, headache and fatigue”; in series [2] (intermittent dosing), “diarrhea, nausea, vomiting, and constipation”. The “Related Grade 3 events” value is “vomiting (n=3), diarrhea (n=3), liver enzyme elevation (n=2) dehydration (n=1), worsened hypertension (n=1)” in series [2] (continuous dosing section); “vomiting (n=3), diarrhea (n=3), liver enzyme elevation (n=2) dehydration (n=1), and worsened hypertension (n=1)” in series [2] (intermittent dosing). The “Dose limiting toxicity (DLT), patients affected” value was 2/3 in series [2] (continuous dosing, 10 mg per day, Grade 3 diarrhea (n=2)) and 2/5 in series [2] (intermittent dosing, 16 mg per day, Grade 3 diarrhea (n=1), Grade 3 AST (n=1)). For the same molecule, the “toxicity in patients receiving >2 cycles” value in series [2] (printed in the continuous dosing section but worded intermittent dosing schedule) is given as “No significant increase in toxicity”. Further, the “effect on disease in prior treated patients” value in the series on advanced solid tumors is given as “stabilized disease”. For the same molecule, the “decrease in p-AKT/T-AKT” value in the series with p-AKT/T-AKT is at least 60%. Moreover, in series [1] (after oral PX-866, with rare exceptions), the “plasma level of parent PX-866” value was “below the limits of detection”. Besides, in the series on PI-3K pathway, the “effect on the PI-3K pathway (p-mTOR, p-S6)” value is on record as “inhibition of the PI-3K pathway”.

Values taken from patent US20130131156A1, “Cancer Treatment with Wortmannin Analogs” (ONCOTHYREON INC., priority 2010, published 2013).
